Data on one compound can be found in patent publication US12194153B2, “Amorphous dispersion of 4-methyl-3-quinolin-3-ylethynyl-benzoic acid n′-(2-chloro-6-methyl-benzoyl) hydrazide” (SUN PHARMA ADVANCED RESEARCH COMPANY LIMITED, priority 2017, dated 2025).

The nature of this data set: Oral bioavailability study in dogs (plasma levels of compound of formula I). The format is in vivo. The note with it: dog; oral administration to dogs; plasma level of compound of formula I. As to the method:
Suitable amount of amorphous dispersion of Example I and the crystalline form of compound of formula I suspended in a vehicle were administered orally to dogs.
Blood samples were withdrawn at various time intervals and the plasma levels of compound of formula I were recorded. The Cmax, AUC0 to t and AUC0-∞, in plasma are tabulated below.

In general, AUC(0-inf) refers to total exposure, with the tail of the curve extrapolated. Low readings indicate less exposure, high ones more exposure. In general, AUC(0-t) refers to the area under the concentration-time curve up to a stated or last time point. A low value points to less exposure. As usually defined, the Cmax is the maximum level reached in the sampled fluid or tissue. The compound `Cc1ccc(C(=O)NNC(=O)c2c(C)cccc2Cl)cc1C#Cc1cnc2ccccc2c1` [Compound of formula I in a vehicle, 4-Methyl-3-quinolin-3-ylethynyl-benzoic acid N′-(2-chloro-6-methyl-benzoyl)hydrazide] gave an AUC(0-inf) of 1.19 µg·h/mL, an AUC(0-t) of 1.07 µg·h/mL and a Cmax of 0.282 µg/mL.
